Measured values published in ChEMBL document CHEMBL2311471, “Synthesis of (E)-8-(3-chlorostyryl)caffeine analogues leading to 9-deazaxanthine derivatives as dual A(2A) antagonists/MAO-B inhibitors” (J Med Chem, 2013).
pIC50, pKi: −log10 of the molar value.

Columns and labels:
[1] = target: T1, Amine oxidase [flavin-containing] B (Homo sapiens, UniProt P27338); assay: Inhibition of human MAOB after 1 hr by luminescence assay
T1 sequence (P27338 whole entry): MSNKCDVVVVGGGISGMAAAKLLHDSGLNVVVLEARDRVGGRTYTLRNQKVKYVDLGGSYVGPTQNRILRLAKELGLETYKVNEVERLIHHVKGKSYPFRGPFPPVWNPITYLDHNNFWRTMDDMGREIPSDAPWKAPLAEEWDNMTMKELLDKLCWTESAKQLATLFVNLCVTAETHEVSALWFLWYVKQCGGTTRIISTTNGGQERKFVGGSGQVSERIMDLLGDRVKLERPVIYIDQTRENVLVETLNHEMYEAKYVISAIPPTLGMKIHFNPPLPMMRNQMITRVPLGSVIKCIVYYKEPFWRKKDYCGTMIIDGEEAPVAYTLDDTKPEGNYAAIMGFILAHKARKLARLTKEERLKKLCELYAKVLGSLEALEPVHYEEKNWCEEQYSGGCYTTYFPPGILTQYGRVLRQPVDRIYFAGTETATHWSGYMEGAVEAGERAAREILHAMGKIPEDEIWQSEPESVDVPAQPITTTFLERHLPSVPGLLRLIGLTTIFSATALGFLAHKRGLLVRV

Adenosine receptor A2a = Adenosine receptor A2a (Homo sapiens, UniProt P29274); assay: Displacement of [3H]ZM241385 from human adenosine A2A receptor expressed in HEK293 cells after 1 hr by microbeta scintillation counting analysis; assay type: cell-based
[2] = target: T2, Amine oxidase [flavin-containing] A (Homo sapiens, UniProt P21397); assay: Inhibition of human MAOA after 1 hr by luminescence assay
T2 sequence (P21397 whole entry): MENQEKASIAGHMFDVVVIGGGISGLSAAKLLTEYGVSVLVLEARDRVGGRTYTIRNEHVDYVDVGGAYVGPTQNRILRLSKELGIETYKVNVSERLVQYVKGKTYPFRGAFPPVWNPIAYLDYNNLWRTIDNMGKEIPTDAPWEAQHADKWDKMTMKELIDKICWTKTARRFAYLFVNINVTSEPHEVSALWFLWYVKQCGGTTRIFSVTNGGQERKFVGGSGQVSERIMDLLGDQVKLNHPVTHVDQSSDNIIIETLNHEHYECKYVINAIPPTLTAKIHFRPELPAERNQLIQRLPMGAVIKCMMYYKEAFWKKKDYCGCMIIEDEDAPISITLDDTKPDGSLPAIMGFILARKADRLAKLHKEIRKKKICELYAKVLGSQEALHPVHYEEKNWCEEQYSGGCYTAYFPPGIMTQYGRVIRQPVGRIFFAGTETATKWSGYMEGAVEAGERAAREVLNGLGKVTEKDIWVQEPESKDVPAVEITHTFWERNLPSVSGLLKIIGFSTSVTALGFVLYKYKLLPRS

Adenosine receptor A2a, sequence (P29274 whole entry): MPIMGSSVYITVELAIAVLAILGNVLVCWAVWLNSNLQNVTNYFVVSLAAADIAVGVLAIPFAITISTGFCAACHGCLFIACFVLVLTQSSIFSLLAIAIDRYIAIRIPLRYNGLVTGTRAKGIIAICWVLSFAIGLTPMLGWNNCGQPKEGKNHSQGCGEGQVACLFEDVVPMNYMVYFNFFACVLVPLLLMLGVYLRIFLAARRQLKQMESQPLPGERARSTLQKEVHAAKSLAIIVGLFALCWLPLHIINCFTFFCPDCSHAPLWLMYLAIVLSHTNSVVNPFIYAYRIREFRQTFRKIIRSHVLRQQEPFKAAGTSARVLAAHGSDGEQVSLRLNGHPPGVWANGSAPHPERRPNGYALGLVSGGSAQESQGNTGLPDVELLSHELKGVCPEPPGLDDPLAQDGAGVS

Row | Structure (SMILES) | pIC50 [1] | pKi (Adenosine receptor A2a) | pIC50 [2]
1 | Cn1ccc2nc(/C=C/c3ccccc3)n(C)c2c1=O | < 5.00 | < 5.00 | 
2 | Cn1c(=O)c2c(c3ccc(-c4ccccc4)cc3n2C)n(C)c1=O | 5.12 | < 5.00 | 
3 | CN(C(=O)/C=C/c1ccccc1)c1cn(C)c(=O)n(C)c1=O | < 5.00 | < 6.00 | 
4 | Cn1c(=O)c2c(cc(OCc3ccc(Cl)c(C(F)(F)F)c3)n2C)n(C)c1=O | 6.23 | < 5.00 | < 5.00
5 | Cn1c(/C=C/c2ccccc2)nc2c1ccc(=O)n2C | < 5.00 | < 5.00 | 
6 | Cn1c(=O)c2c(cc(/C=C/c3cccc(C#N)c3)n2C)n(C)c1=O | < 5.00 | < 5.00 | 
7 | Cn1c(=O)c2c(cc(/C=C/c3cccc(Cl)c3)n2C)n(C)c1=O | 5.83 | 6.37 | 
8 | CCn1c(=O)c2c(nc(/C=C/c3ccc(OC)c(OC)c3)n2C)n(CC)c1=O [ISTRADEFYLLINE] | < 5.00 |  | 
9 | Cn1c(=O)c2c(cc(C#Cc3cccc(Cl)c3)n2C)n(C)c1=O | 6.76 | < 5.00 | < 5.00
10 | Cn1c(=O)c2c(cc(/C=C/c3ccccc3O)n2C)n(C)c1=O | < 6.00 | 5.94 | 
11 | CCn1c(=O)c2c(cc(C#Cc3ccc(Cl)cc3)n2C)n(CC)c1=O | < 6.00 | < 5.00 | 
12 | Cn1c(=O)c2c(cc(/C=C/c3ccc(F)cc3)n2C)n(C)c1=O | 6.76 | 6.37 | 6.09
13 | Cn1c(=O)c2c(cc(/C=C/c3ccc(Cl)c(Cl)c3)n2C)n(C)c1=O | 6.88 | < 5.00 | 
14 | Cn1c(=O)c2c(cc(/C=C/c3ccccc3)n2C)n(C)c1=O | 5.80 | 6.77 | 
15 | CC(=O)c1ccc(/C=C/c2cc3c(c(=O)n(C)c(=O)n3C)n2C)cc1 | 6.23 | 7.03 | < 5.00
16 | Cn1c(=O)c2c(c3cc(OCc4ccccc4)ccc3n2C)n(C)c1=O | 5.28 | < 6.00 | < 5.00
17 | CCn1c(=O)c2c(cc(OCc3ccc(Cl)cc3)n2C)n(CC)c1=O | < 6.00 | < 5.00 | 
18 | Cn1c(=O)c2c(cc(/C=C/c3cccc(C(F)(F)F)c3)n2C)n(C)c1=O | 6.32 | < 5.00 | 5.24
19 | CCn1c(=O)c2c(cc(/C=C/c3ccc(Cl)cc3)n2C)n(CC)c1=O | < 6.00 | < 5.00 | 
20 | Cn1c(=O)c2c(cc(OCc3ccc(Cl)cc3)n2C)n(C)c1=O | 7.32 | < 5.00 | 5.54
21 | Cn1c(=O)c2c(cc(/C=C/c3ccc(C(F)(F)F)cc3)n2C)n(C)c1=O | 6.37 | 6.28 | < 5.00
22 | Cn1c(=O)c2c(cc(-n3cc(-c4ccc(Cl)cc4)nn3)n2C)n(C)c1=O | 6.74 | < 5.00 | 6.14

Row | Structure (SMILES) | pIC50 [1] | pKi (Adenosine receptor A2a) | pIC50 [2]
23 | Cn1c(=O)c2c(cc(/C=C/c3cccc(O)c3)n2C)n(C)c1=O | < 6.00 | < 6.00 | 
24 | Cn1c(=O)c2c(nc(/C=C/c3ccc(Cl)cc3)n2C)n(C)c1=O | 6.37 | 6.85 | < 5.00
25 | CCCOc1ccc(/C=C/c2cc3c(c(=O)n(C)c(=O)n3C)n2C)cc1 | 5.86 | 6.51 | 5.89
26 | Cn1c(=O)c2c(cc(/C=C/c3ccc(C#N)cc3)n2C)n(C)c1=O | 6.26 | < 6.00 | < 5.00
27 | COc1cccc(/C=C/c2cc3c(c(=O)n(C)c(=O)n3C)n2C)c1 | 6.43 | 6.41 | 5.91
28 | Cn1c(=O)c2c(cc(Oc3cccc(-c4ccccc4)c3)n2C)n(C)c1=O | < 5.00 | < 5.00 | 
29 | Cn1c(=O)c2c(cc(/C=C/c3ccc4c(c3)OCO4)n2C)n(C)c1=O | < 6.00 | 6.33 | 
30 | Cn1c(=O)c2c(cc(/C=C/c3ccc(O)cc3)n2C)n(C)c1=O | < 5.00 | < 5.00 | 
31 | Cn1c(=O)c2c(cc(C#CCc3ccccc3)n2C)n(C)c1=O | < 6.00 | < 5.00 | 
32 | Cn1c(=O)c2c(cc(/C=C/c3cccc(N)n3)n2C)n(C)c1=O | < 5.00 | 6.05 | 
33 | Cn1c(=O)c2c(cc(-c3nc4ccc(Cl)cc4o3)n2C)n(C)c1=O | < 6.00 | < 6.00 | 
34 | Cn1c(=O)c2c(cc(C#Cc3ccc(Cl)cc3)n2C)n(C)c1=O | 7.17 | < 5.00 | 5.69
35 | Cn1c(=O)c2c(cc(/C=C/c3ccc(S(C)(=O)=O)cc3)n2C)n(C)c1=O | < 6.00 | < 6.00 | 
36 | COc1ccc(/C=C/c2cc3c(c(=O)n(C)c(=O)n3C)n2C)cc1 | 6.12 | 6.61 | < 6.00
37 | Cn1c(=O)c2c(cc(/C=C/c3ccc(Br)cc3)n2C)n(C)c1=O | 6.57 | < 5.00 | 5.79
38 | Cn1c(=O)c2c(cc(Oc3cccc(Cl)c3)n2C)n(C)c1=O | < 5.00 | < 5.00 | 
39 | CC(=O)c1cccc(/C=C/c2cc3c(c(=O)n(C)c(=O)n3C)n2C)c1 | < 5.00 | < 5.00 | 
40 | Cn1c(=O)c2c(cc(NC(=O)c3ccc(Cl)cc3)n2C)n(C)c1=O | < 5.00 | < 5.00 | 
41 | Cn1c(=O)c2c(cc(/C=C/c3ccncc3)n2C)n(C)c1=O | < 5.00 | < 5.00 | 
42 | Cn1c(=O)c2c(c3ccc(-c4cccc(Cl)c4)cc3n2C)n(C)c1=O | 5.86 | < 6.00 | 5.51
43 | Cn1c(=O)c2c(cc(OCc3ccc4ccccc4c3)n2C)n(C)c1=O | < 6.00 | < 5.00 | < 5.00
44 | CCn1c(/C=C/c2ccc(Cl)cc2)cc2c1c(=O)n(C)c(=O)n2C | < 6.00 | < 5.00 | 
